Laboratory results from US10947389B2, “Composition, film, near infrared cut filter, laminate, pattern forming method, solid image pickup element, image display device, infrared sensor, and color filter” (FUJIFILM Corporation, priority 2016, dated 2021).

How the values were obtained:
[1] = Evaluation of solubility in water at 23° C.; assay type: physicochemical; conditions: stirred for 1 hour
Protocol: Each of the compounds was added to water at 23° C. under the atmospheric pressure, the components were stirred for 1 hour, and the solubility of the compound in water was obtained. The solubility of the compound was evaluated based on the following criteria.
A: the solubility in water at 23° C. was 0.1 mass % or lower
B: the solubility in water at 23° C. was higher than 0.1 mass % and 1 mass % or lower
C: the solubility in water at 23° C. was higher than 1 mass %

[2] = Evaluation of absorption maximum and absorbance ratio (500 nm/λmax) in solution; assay type: physicochemical; conditions: for λmax (nm) of Second Near Infrared Absorbing Compound: as listed in Table 58; for Absorbance Ratio (500 nm/λmax) / Absorption Maximum (nm): solvent chloroform
From the text: In this specification, “having an absorption maximum in a wavelength range of 650 to 1000 nm” denotes having a maximum absorbance in a wavelength range of 650 to 1000 nm in an absorption spectrum of the near infrared absorbing compound in a solution. Examples of a measurement solvent used for the measurement of the absorption spectra of the near infrared absorbing compound in the solution include chloroform, methanol, dimethyl sulfoxide, ethyl acetate, and tetrahydrofuran. In the case of a compound which is soluble in chloroform, chloroform is used as the measurement solvent. In the case of a compound which is not soluble in chloroform, methanol is used. In addition, In the case of a compound which is not soluble in chloroform and methanol, dimethyl sulfoxide is used.
Each of the compounds was dissolved in a measurement solvent shown in the following tables (concentration: 2.5×10^−6 mol/L) to measure an absorption spectrum (optical path length: 10 mm).
In addition, an absorbance ratio (500 nm/λmax) as a value obtained by dividing an absorbance at a wavelength of 500 nm by an absorbance at an absorption maximum was evaluated based on the following criteria.
A: the absorbance ratio (500 nm/λmax) was 0.04 or lower
B: the absorbance ratio (500 nm/λmax) was higher 0.04 and 0.08 or lower
C: the absorbance ratio (500 nm/λmax) was higher than 0.08

SMILES	Solubility [1]	λmax (nm) of Second Near Infrared Absorbing Compound [2] [nm]	Absorbance Ratio (500 nm/λmax) [2]	Absorption Maximum (nm) [2] [nm]
Cc1ccc2c(c1)OB(n1c(-c3cccc(OCC(CCC(C)CC(C)(C)C)C(C)CC(C)(C)C)c3)c3/c(=C(\C#N)c4nc5cc(C)ccc5o4)n(B4Oc5ccc(C)cc5O4)c(-c4cccc(OCC(CCC(C)CC(C)(C)C)C(C)CC(C)(C)C)c4)c3/c1=C(\C#N)c1nc3cc(C)ccc3o1)O2 (centres unmarked) [II-269]	A (the solubility in water at 23 °C was 0.1 mass % or lower)	685	A (the absorbance ratio (500 nm/λmax) was 0.04 or lower)	685
CC(CCC(COc1cccc(-c2c3/c(=C(\C#N)c4ccc5ccccc5n4)n(B(c4ccccc4)c4ccccc4)c(-c4cccc(OCC(CCC(C)CC(C)(C)C)C(C)CC(C)(C)C)c4)c3/c(=C(\C#N)c3ccc4ccccc4n3)n2B(c2ccccc2)c2ccccc2)c1)C(C)CC(C)(C)C)CC(C)(C)C (centres unmarked) [III-358]	A (the solubility in water at 23 °C was 0.1 mass % or lower)		A (the absorbance ratio (500 nm/λmax) was 0.04 or lower)	814
Cc1ccc2oc(C(C#N)=c3c4c(-c5cccc(OCC(CCCCCCCC(C)C)CCCCCC(C)C)c5)n(B(c5ccccc5)c5ccccc5)c(=C(C#N)c5nc6cc(C)ccc6o5)c4c(-c4cccc(OCC(CCCCCCCC(C)C)CCCCCC(C)C)c4)n3B(c3ccccc3)c3ccccc3)nc2c1 (centres unmarked) [II-185]	A (the solubility in water at 23 °C was 0.1 mass % or lower)		A (the absorbance ratio (500 nm/λmax) was 0.04 or lower)	748
CC(CCC(COc1cccc(-c2c3/c(=C(\C#N)c4nc5cc(Cl)ccc5o4)n(B4Oc5ccccc5O4)c(-c4cccc(OCC(CCC(C)CC(C)(C)C)C(C)CC(C)(C)C)c4)c3/c(=C(\C#N)c3nc4cc(Cl)ccc4o3)n2B2Oc3ccccc3O2)c1)C(C)CC(C)(C)C)CC(C)(C)C (centres unmarked) [II-408]	A (the solubility in water at 23 °C was 0.1 mass % or lower)	680	A (the absorbance ratio (500 nm/λmax) was 0.04 or lower)	680
Cc1cc2ncc(/C(C#N)=c3/c4c(-c5cccc(OCC(CCC(C)CC(C)(C)C)C(C)CC(C)(C)C)c5)n(B(c5ccccc5)c5ccccc5)/c(=C(/C#N)c5cnc6cc(C)c(C)cc6n5)c4c(-c4cccc(OCC(CCC(C)CC(C)(C)C)C(C)CC(C)(C)C)c4)n3B(c3ccccc3)c3ccccc3)nc2cc1C (centres unmarked) [III-328]	A (the solubility in water at 23 °C was 0.1 mass % or lower)		A (the absorbance ratio (500 nm/λmax) was 0.04 or lower)	872
Cc1ccc2oc(/C(C#N)=c3/c4c(-c5cccc(OCC(CCC(C)CC(C)(C)C)C(C)CC(C)(C)C)c5)n(B5Oc6cc7ccccc7cc6O5)/c(=C(/C#N)c5nc6cc(C)ccc6o5)c4c(-c4cccc(OCC(CCC(C)CC(C)(C)C)C(C)CC(C)(C)C)c4)n3B3Oc4cc5ccccc5cc4O3)nc2c1 (centres unmarked) [II-275]	A (the solubility in water at 23 °C was 0.1 mass % or lower)	685	A (the absorbance ratio (500 nm/λmax) was 0.04 or lower)	685
CC(CCC(COc1cccc(-c2c3/c(=C(\C#N)c4cnc5ccccc5n4)n(B(c4ccccc4)c4ccccc4)c(-c4cccc(OCC(CCC(C)CC(C)(C)C)C(C)CC(C)(C)C)c4)c3/c(=C(\C#N)c3cnc4ccccc4n3)n2B(c2ccccc2)c2ccccc2)c1)C(C)CC(C)(C)C)CC(C)(C)C (centres unmarked) [III-28]	A (the solubility in water at 23 °C was 0.1 mass % or lower)		A (the absorbance ratio (500 nm/λmax) was 0.04 or lower)	863
CC(CCC(COc1ccc(-c2c3/c(=C(\C#N)c4cnc5cc(Cl)c(Cl)cc5n4)n(B(c4ccccc4)c4ccccc4)c(-c4ccc(OCC(CCC(C)CC(C)(C)C)C(C)CC(C)(C)C)cc4)c3/c(=C(\C#N)c3cnc4cc(Cl)c(Cl)cc4n3)n2B(c2ccccc2)c2ccccc2)cc1)C(C)CC(C)(C)C)CC(C)(C)C (centres unmarked) [III-168]	A (the solubility in water at 23 °C was 0.1 mass % or lower)		A (the absorbance ratio (500 nm/λmax) was 0.04 or lower)	885
CC(C)CCCCCCCC(CCCCCC(C)C)COc1ccc(-c2c3c(=C(C#N)c4nc5ccccc5s4)n(B(c4ccccc4)c4ccccc4)c(-c4ccc(OCC(CCCCCCCC(C)C)CCCCCC(C)C)cc4)c3c(=C(C#N)c3nc4ccccc4s3)n2B(c2ccccc2)c2ccccc2)cc1 (centres unmarked) [II-507]	A (the solubility in water at 23 °C was 0.1 mass % or lower)		A (the absorbance ratio (500 nm/λmax) was 0.04 or lower)	780
N#CC(c1nc2ccccc2s1)=c1c2c(-c3ccc(O)cc3)n(B(c3ccccc3)c3ccccc3)c(=C(C#N)c3nc4ccccc4s3)c2c(-c2ccc(O)cc2)n1B(c1ccccc1)c1ccccc1 [II-524]	A (the solubility in water at 23 °C was 0.1 mass % or lower)		A (the absorbance ratio (500 nm/λmax) was 0.04 or lower)	779
CCCCC(CC)COc1ccc(B2N=c3/c(=C4/C(=O)C(c5ccc6cccc7c6c5NB(c5ccc(OCC(CC)CCCC)cc5)N7)=C4O)ccc4cccc(c34)N2)cc1 (centres unmarked) [Compound Q-39]	A (the solubility in water at 23 °C was 0.1 mass % or lower)		A (the absorbance ratio (500 nm/λmax) was 0.04 or lower)	822
Cc1ccc2oc(C(C#N)=c3c4c(-c5ccc(OCC(CCCCCCCC(C)C)CCCCCC(C)C)cc5)n(B(c5ccccc5)c5ccccc5)c(=C(C#N)c5nc6cc(C)ccc6o5)c4c(-c4ccc(OCC(CCCCCCCC(C)C)CCCCCC(C)C)cc4)n3B(c3ccccc3)c3ccccc3)nc2c1 (centres unmarked) [II-167]	A (the solubility in water at 23 °C was 0.1 mass % or lower)		A (the absorbance ratio (500 nm/λmax) was 0.04 or lower)	745
CC(C)CCCCCCCC(CCCCCC(C)C)COc1cccc(-c2c3c(=C(C#N)c4nc5c(ccc6ccccc65)o4)n(B(c4ccccc4)c4ccccc4)c(-c4cccc(OCC(CCCCCCCC(C)C)CCCCCC(C)C)c4)c3c(=C(C#N)c3nc4c(ccc5ccccc54)o3)n2B(c2ccccc2)c2ccccc2)c1 (centres unmarked) [II-715]	A (the solubility in water at 23 °C was 0.1 mass % or lower)		A (the absorbance ratio (500 nm/λmax) was 0.04 or lower)	769
CCCCC(CC)CC(=O)Nc1cc2c(cc1C1=C([O-])/C(=c3/cc4c(cc3NC(=O)CC(CC)CCCC)=[N+](C)C(C)C4(C)C)C1=O)C(C)(C)C(C)N2C (centres unmarked) [Compound Q-36]	A (the solubility in water at 23 °C was 0.1 mass % or lower)	704	A (the absorbance ratio (500 nm/λmax) was 0.04 or lower)	704
CCCCCCCCCCC(CCCCCCCC)COc1cccc(-c2c3c(=C(C#N)c4cnc5ccccc5n4)n(B(c4ccccc4)c4ccccc4)c(-c4cccc(OCC(CCCCCCCC)CCCCCCCCCC)c4)c3c(=C(C#N)c3cnc4ccccc4n3)n2B(c2ccccc2)c2ccccc2)c1 (centres unmarked) [III-29]	A (the solubility in water at 23 °C was 0.1 mass % or lower)		A (the absorbance ratio (500 nm/λmax) was 0.04 or lower)	863
CC(CCC(COc1cccc(-c2c3/c(=C(\C#N)c4nc5ccccc5s4)n(B4Oc5ccccc5O4)c(-c4cccc(OCC(CCC(C)CC(C)(C)C)C(C)CC(C)(C)C)c4)c3/c(=C(\C#N)c3nc4ccccc4s3)n2B2Oc3ccccc3O2)c1)C(C)CC(C)(C)C)CC(C)(C)C (centres unmarked) [II-590]	A (the solubility in water at 23 °C was 0.1 mass % or lower)	719	A (the absorbance ratio (500 nm/λmax) was 0.04 or lower)	719
Cc1ccc2oc(/C(C#N)=c3/c4c(-c5ccc(O)cc5)n(B(c5ccccc5)c5ccccc5)/c(=C(/C#N)c5nc6cc(C)ccc6o5)c4c(-c4ccc(O)cc4)n3B(c3ccccc3)c3ccccc3)nc2c1 [II-184]	A (the solubility in water at 23 °C was 0.1 mass % or lower)		A (the absorbance ratio (500 nm/λmax) was 0.04 or lower)	749
